From ChEMBL document CHEMBL5260837, “Recent advances in small molecule based cancer immunotherapy” (Eur J Med Chem, 2018) come the findings set out here.

The target of data set [1] is T1, Arginase-2, mitochondrial (Homo sapiens, UniProt P78540).
T1 sequence (P78540 whole entry): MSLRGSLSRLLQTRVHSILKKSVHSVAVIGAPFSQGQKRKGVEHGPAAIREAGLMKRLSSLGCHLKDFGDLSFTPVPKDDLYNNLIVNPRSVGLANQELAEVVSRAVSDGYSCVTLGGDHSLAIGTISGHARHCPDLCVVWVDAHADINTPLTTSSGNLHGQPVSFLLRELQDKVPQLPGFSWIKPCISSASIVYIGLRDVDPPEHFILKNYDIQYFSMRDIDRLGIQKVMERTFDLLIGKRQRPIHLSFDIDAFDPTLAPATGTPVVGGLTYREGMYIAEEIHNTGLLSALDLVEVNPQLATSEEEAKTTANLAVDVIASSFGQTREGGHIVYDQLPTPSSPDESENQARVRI
Kind of data set: Competitive inhibition of human ARG2.

Data set [2] has as its target Indoleamine 2,3-dioxygenase 1 (Homo sapiens, UniProt P14902). Nature of the data set: Inhibition of human IDO1.
A further data set concerns the target T2, Toll-like receptor 8 (Homo sapiens, UniProt Q9NR97).
T2 sequence (Q9NR97 whole entry): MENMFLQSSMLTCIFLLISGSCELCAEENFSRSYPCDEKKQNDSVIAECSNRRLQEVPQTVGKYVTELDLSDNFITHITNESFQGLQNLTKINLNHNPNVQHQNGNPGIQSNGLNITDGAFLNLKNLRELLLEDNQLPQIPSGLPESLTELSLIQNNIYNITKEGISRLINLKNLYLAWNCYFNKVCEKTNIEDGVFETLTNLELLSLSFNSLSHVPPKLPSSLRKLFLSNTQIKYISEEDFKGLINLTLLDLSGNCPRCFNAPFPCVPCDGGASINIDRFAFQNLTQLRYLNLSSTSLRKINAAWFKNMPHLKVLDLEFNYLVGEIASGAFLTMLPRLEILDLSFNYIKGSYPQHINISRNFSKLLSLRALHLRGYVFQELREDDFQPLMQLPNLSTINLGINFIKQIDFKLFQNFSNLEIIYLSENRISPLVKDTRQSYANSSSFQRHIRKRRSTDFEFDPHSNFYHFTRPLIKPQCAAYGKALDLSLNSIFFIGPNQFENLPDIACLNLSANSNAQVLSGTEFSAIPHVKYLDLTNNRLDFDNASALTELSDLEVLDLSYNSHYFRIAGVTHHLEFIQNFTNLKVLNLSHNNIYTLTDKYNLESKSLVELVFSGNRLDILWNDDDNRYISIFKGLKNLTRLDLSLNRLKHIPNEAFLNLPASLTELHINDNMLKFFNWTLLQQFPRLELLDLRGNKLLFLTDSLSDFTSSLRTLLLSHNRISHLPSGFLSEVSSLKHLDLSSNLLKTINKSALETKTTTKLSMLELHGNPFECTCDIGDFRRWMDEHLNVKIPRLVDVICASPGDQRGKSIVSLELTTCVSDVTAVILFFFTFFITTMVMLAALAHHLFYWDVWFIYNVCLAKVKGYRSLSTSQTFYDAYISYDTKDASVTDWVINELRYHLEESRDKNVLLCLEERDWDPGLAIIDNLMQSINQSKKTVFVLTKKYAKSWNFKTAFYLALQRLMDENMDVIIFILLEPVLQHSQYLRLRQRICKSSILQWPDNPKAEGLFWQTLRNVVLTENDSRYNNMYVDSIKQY
Kind of data set: Agonist activity at human TLR8 expressed in HEK293 cells by reporter gene assay. A general note: Reporter assays use an easily measured gene product as a stand-in for the process of interest.

Data set [3] in a line: Oral bioavailability in rat. It counts as ADME, organism-based. The following applies: in vivo.
Data set [4] is described as follows: Half life in rat. It counts as ADME. The following applies: in vivo.
Data set [5] deals with T3, Ectonucleoside triphosphate diphosphohydrolase 1 (Homo sapiens, UniProt P49961).
T3 sequence (P49961 whole entry): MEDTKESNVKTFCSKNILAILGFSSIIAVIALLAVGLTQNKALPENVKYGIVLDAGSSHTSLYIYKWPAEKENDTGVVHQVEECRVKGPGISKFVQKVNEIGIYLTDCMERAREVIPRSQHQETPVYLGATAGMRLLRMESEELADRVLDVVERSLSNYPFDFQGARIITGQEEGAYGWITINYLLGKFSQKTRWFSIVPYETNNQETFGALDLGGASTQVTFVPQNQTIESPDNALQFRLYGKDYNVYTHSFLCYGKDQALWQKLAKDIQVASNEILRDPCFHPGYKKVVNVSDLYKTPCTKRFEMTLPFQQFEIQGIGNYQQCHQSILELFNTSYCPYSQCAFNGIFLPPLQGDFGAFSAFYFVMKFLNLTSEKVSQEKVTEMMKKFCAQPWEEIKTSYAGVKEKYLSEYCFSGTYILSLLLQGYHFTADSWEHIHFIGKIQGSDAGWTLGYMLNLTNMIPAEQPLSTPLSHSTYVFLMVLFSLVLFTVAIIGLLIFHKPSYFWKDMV
Nature of the data set: Inhibition of human NTPDase1.

For the next data set, the target named is T4, Arginase-1 (Homo sapiens, UniProt P05089).
T4 sequence (P05089 whole entry): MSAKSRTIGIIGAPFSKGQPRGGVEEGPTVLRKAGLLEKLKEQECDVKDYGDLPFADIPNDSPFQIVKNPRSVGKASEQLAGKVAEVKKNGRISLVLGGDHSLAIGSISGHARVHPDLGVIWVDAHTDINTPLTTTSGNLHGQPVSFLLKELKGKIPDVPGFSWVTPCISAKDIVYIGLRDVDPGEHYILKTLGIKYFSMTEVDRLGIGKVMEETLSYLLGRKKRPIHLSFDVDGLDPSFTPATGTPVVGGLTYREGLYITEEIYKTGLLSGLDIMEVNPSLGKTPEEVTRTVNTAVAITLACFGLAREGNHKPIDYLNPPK
Nature of the data set: Inhibition of human ARG1.

Data set [6] addresses Programmed cell death protein 1/Programmed cell death 1 ligand 1 (Homo sapiens, UniProt Q15116+Q9NZQ7). Kind of data set: Inhibition of PD-1/PD-L1 interaction (unknown origin) incubated for 24 hrs by HTRF assay. It counts as protein-complex assay. On the technique in general: In TR-FRET formats the signal depends on donor and acceptor labels being close together.
A short description of data set [7]: Half life in mouse at 2000 mg/kg. It counts as ADME, organism-based. The following applies: in vivo.
Data set [8] has as its target C-X-C chemokine receptor type 4 (Homo sapiens, UniProt P61073). Nature of the data set: Antagonist activity at CXCR4 receptor in human MIA PaCa-2 cells assessed as reduction in forskolin-stimulated inhibition of cAMP production. It counts as cell-based.
The next data set deals with MIA PaCa-2. Nature of the data set: Antiproliferative activity against human MIA PaCa-2 cells.
Another data set concerns Splenocyte. Nature of the data set: Antiproliferative activity in mouse splenocyte assessed as inhibition of cell proliferation incubated for 72 hrs by MTT assay. The arrangement: scale not given: the % may be the effect or the level left. It counts as functional. (In general: Formazan colour is commonly taken as a measure of viable cells.)

Bounds are passed on as bounds.

Chain of C-X-C chemokine receptor type 4 (P61073 whole entry): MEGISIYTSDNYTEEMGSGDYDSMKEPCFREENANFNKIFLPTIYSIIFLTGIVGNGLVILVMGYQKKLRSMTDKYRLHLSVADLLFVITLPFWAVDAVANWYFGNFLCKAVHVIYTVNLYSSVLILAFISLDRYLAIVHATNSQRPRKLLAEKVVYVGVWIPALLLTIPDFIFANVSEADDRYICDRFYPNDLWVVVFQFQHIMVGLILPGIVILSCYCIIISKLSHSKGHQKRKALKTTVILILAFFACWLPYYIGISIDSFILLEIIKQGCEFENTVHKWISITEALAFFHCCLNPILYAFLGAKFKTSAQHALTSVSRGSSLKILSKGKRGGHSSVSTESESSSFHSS
Chain of Indoleamine 2,3-dioxygenase 1 (P14902 whole entry): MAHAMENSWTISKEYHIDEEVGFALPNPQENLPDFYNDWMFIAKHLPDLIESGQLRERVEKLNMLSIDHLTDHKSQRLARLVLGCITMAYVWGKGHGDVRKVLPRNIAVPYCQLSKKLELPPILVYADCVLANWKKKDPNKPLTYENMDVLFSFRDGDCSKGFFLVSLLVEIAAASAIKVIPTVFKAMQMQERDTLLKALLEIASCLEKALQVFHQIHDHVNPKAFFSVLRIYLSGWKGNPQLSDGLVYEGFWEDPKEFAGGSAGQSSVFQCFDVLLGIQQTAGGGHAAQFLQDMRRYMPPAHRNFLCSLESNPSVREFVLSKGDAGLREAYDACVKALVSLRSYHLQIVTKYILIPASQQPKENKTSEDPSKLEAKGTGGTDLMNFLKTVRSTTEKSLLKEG
Chain of Programmed cell death protein 1/Programmed cell death 1 ligand 1 (Q15116 whole entry): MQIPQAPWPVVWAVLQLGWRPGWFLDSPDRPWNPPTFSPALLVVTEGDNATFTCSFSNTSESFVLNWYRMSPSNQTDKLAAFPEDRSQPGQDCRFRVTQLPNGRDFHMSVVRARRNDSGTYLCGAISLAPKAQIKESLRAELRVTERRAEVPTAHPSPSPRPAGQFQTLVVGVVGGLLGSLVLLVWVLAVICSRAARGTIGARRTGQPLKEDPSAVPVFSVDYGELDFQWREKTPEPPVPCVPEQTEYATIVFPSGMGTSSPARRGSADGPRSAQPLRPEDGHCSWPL
Chain of Programmed cell death protein 1/Programmed cell death 1 ligand 1 (Q9NZQ7 whole entry): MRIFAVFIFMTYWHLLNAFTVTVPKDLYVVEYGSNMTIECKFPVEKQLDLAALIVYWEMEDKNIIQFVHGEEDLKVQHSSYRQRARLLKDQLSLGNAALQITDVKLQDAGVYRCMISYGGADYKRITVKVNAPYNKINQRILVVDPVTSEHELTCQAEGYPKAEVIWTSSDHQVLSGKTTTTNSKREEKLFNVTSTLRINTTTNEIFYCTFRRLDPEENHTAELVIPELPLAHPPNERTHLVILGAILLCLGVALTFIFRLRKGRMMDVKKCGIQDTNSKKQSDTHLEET

The term Ki denotes a measure of affinity in units of concentration, obtained from inhibition or displacement. Take `N[C@@H](CSCCB(O)O)C(=O)O`: the inhibitory constant (Ki) in [1] is 310 nM.
The term IC50 denotes the concentration that gives 50% inhibition. In the case of `C[C@@]12CCCCC1=C(O)C(=O)c1cc3c(cc12)C(=O)C1=C(C3=O)S(=O)(=O)CCN1`, 110 nM corresponded to half-maximal inhibition in data set [2] (IC50).
The EC50 is the concentration that produces a half-maximal response. For `CCCN(CCC)C(=O)C1=Cc2ccc(-c3ccc(C(=O)N4CCCC4)cc3)cc2N=C(N)C1` [MOTOLIMOD], at Toll-like receptor 8, the response was half-maximal at 100 nM (EC50).
The bioavailability is the share of a dose that reaches the circulation, judged against a reference dose that is usually intravenous. As usually defined, the half-life is the time in which the quantity being followed falls by half. In [3], `N=C(NO)NCC[C@H](N)C(=O)O` [NOR-NOHA] had a bioavailability of 100%. Further, in data set [4], the half-life was found to be 0.25 h.
In [5], `COc1cc(/C=N/c2nc(-c3cc4ccccc4oc3=O)cs2)cc(OC)c1OC` returned an IC50 of 50 nM.
Compound `CN[C@@H](CO)C(=O)N1C[C@H](CCCB(O)O)[C@](N)(C(=O)O)C1` registered an IC50 against Arginase-1 of 740 nM.
For `Cc1c(Nc2cccc3cc(CNCCO)cnc23)cccc1-c1ccccc1`, the IC50 in data set [6] was below 10 nM.
In data set [7], `Cn1cc(C[C@@H](N)C(=O)O)c2ccccc21` [INDOXIMOD] had a half-life of 10.5 h.
Take `CCN(CC)CCCC(C)Nc1ccnc2cc(Cl)ccc12` (configuration not stated) [CHLOROQUINE]: in data set [8], the concentration for a half-maximal effect (EC50) came out at 6500 nM. The compound further had an IC50 with MIA PaCa-2 of 3500 nM.
On to `NC(=O)C[C@H](N)c1nc([C@@H](N)CO)no1`, for which, in the data set on Splenocyte, the Activity stood at 48.4%.
